Results taken from patent publication US20050074447A1, “Treatment for diabetic microvascular and macrovascular complications” (priority 2003, published 2005).
“Also recorded” adds a separate entry of the source.

Key:
[1] = system: rat INS-1 β-cells; test: MTS cell viability: protection of INS-1 β-cells from STZ, Example 3; type: cell-based; conditions: for protection of INS-1 cells from STZ (relative viability): different concentrations of alpha- or gamma-tocopherol, overnight pre-incubation, then 24 hours with STZ 1 mM
Method: INS-1 cells were cultured overnight in 96 well culture plates in a humidified incubator at 37° C., in the presence or absence of different concentrations of alpha- or gamma-tocopherol and then in the presence of a combination of equimolar parts of gamma- and alpha-tocopherol (25 μM gamma-, 25 μM alpha-tocopherol). The cells at each condition were then cultured for an additional 24 hours either in the presence or absence of STZ (1 mM). Alpha-tocopherol and gamma-tocopherol concentrations in each well were kept the same as those used in the pre-incubation phase. Cell viability was measured with the MTS assay. Results were normalized and values were expressed relative to control (relative viability).

[2] = system: Retinal endothelial cells; test: MTS cell viability: protection of retinal endothelial cells from 25 mM glucose and 2 mM palmitate, Example 2; type: cell-based, Rhesus monkey; conditions: tocopherol used alone; overnight pre-incubation, then 8 hours with 25 mM glucose and 2 mM palmitate
Method: Retinal endothelial cells were cultured overnight in 96 well culture plates in a humidified incubator at 37° C., in the presence or absence of either 50 μM of alpha-tocopherol, 50 μM of gamma-tocopherol or 25 μM alpha-tocopherol plus 25 μM gamma-tocopherol when used in combination. The cells at each condition were then cultured for an additional 8 hours either in the presence or absence of 25 mM glucose and 2 mM palmitate. Alpha-tocopherol and gamma-tocopherol concentrations in each well were kept the same as those used in the pre-incubation phase. Cell viability was measured with the MTS assay. Results were normalized and values were expressed relative to basal glucose control (relative viability).

[3] = system: Rhesus monkey retinal endothelial cells (ATCC CRL-1780); test: MTS cell viability of retinal endothelial cells exposed to hyperglycemia and elevated FFA (palmitate), Example 1; type: cell-based; conditions: hyperglycemia (25 mM glucose) and elevated FFA (1 and 2 mM palmitate), overnight
Method: Rhesus monkey retinal endothelial cells (ATCC CRL-1780) were cultured overnight in 96 well culture plates in a humidified incubator at 37° C., under either basal (5 mM) or hyperglycemic (25 mM) conditions in the absence FFA or in with a 1 and 2 mM palmitate concentration illustrating an elevated FFA environment. At the end of the incubation period endothelial cell viability was measured with the MTS assay and results were expressed relative to the control (5 mM glucose no FFA). The results are shown in Table 1, where error bars represent standard deviations from the mean of triplicate measurements per condition. The relative viability of endothelial cells exposed to hyperglycemia and elevated FFA, as compared to the control, was about 45%. The data in Table 1 illustrates that FFA are cytotoxic to retinal endothelial cells and that their cytotoxicity is enhanced by hyperglycemia. [drawing]

CN(N=O)C(=O)N[C@@H]1[C@@H](O)[C@H](O)[C@@H](CO)O[C@@H]1O [STZ]
effect of STZ on viability of INS-1 cells ([1]; STZ 1 mM, 24 hours): reduced viability

Cc1c(C)c2c(c(C)c1O)CC[C@@](C)(CCC[C@H](C)CCC[C@H](C)CCCC(C)C)O2 [alpha-tocopherol]
relative cell viability (relative to basal glucose control) [2]: 40 to 50%
protection of INS-1 cells from STZ (relative viability) [1]: protected from these effects in a dose dependent manner

Cc1c(O)cc2c(c1C)O[C@](C)(CCC[C@H](C)CCC[C@H](C)CCCC(C)C)CC2 [gamma-tocopherol]
protection of INS-1 cells from STZ (relative viability) [1]: protected from these effects in a dose dependent manner; also recorded: more effective than alpha-tocopherol

CCCCCCCCCCCCCCCC(=O)O [palmitate]
relative viability of endothelial cells as compared to the control (5 mM glucose no FFA) [3]: about 45%
